Read-outs that look alike come from different tables or passages of the source.
Tests used:
[1] = biological target: human NR1/NR2B ion channels (Homo sapiens (Human), UniProt Q05586+Q13224); experiment: HNR2BC: calcium influx assay on cloned human NR1/NR2B ion channels expressed in HEK cells; type: cell-based; conditions: HEK cells with hNR1/NR2B, 100 μM glutamate + 100 μM glycine, 3 parameter plot
Method: HNR2BC: Effects of Test Articles on Cloned Human NR1/NR2B Ion Channels Expressed in Mammalian Cells
The ability of test compounds to act as an antagonist of NR1/NR2B was evaluated with a calcium influx assay (Calcium 5 Assay Kit, Molecular Devices).
For the antagonist assessment, NR1/NR2B was activated with the positive control agonist (Mg^2+-free HBPS+100 μM glutamic acid+100 μM glycine).
A HEK cell line, stable transfected with hNR1/NR2B was used. This tetracycline inducible cell line is transfected with GRIN1 (GeneBank accession number NM_007327.2) and GRIN2B (GeneBank accession number NM_000834.3.). The cells were cultured in cell culture flasks with DMEM/F12 supplemented with 10% FCS, 1% PenStrep and a selection of additional antibiotics.
Forty-Eight (48) hours before the assay the cells were plated into 96-well black well, flat clear bottom microtiter plates at a density of 50000 cells/well. Twenty-Four (24) hours later the receptor expression was induced by the addition of 1 μg/ml tetracycline in the presence of 2 mM ketamine and 200 μM 7-CKA. After 24 h of receptor induction the plates were used for the assay.
The medium was removed and the cells were loaded with 200 μl loading buffer (Molecular Devices) in Mg2+-free HBPS containing 100 μM 7-CKA at 37° C. for one (1) hour.
The test compounds were then solubilized in 100% DMSO and diluted to yield eight (8) different concentrations in 100% DMSO. A 96 well drug plate was prepared by diluting with water and glycine/glutamate to a 5-fold of final test concentration. Fluorescence intensity of the cells in the plate was measured in a FlexStation using an excitation wavelength of 485 nm and an emission wavelength of 525 nm. Twenty (20) seconds after starting the recordings the compounds together with the agonists glycine (100 μM) and glutamate (100 μM) were added into the wells and the fluorescence measured for ninety (90) seconds in summary.
The IC50 values provided in the paragraph below were determined using a 3 parameter plot.

mice = experiment: Forced swim test in mice; type: in vivo; conditions: p.o. 30 minutes before the test, male NMRI mice
Method: The compounds of the invention show significant antidepressive effects in the forced swim test in mice, an animal model of depression at doses of 100 mg/kg or below.
The method, which detects antidepressant activity, follows that described by Porsolt et al (Arch. Int. Pharmacodyn., 229, 327-336, 1977), which is incorporated by reference herein in its entirety.
Mice forced to swim in a situation from which they cannot escape rapidly become immobile. Antidepressants decrease the duration of immobility.
Male NMRI mice (Janvier, France), weighing 20-30 g, were individually placed in a cylinder (height=24 cm; diameter=13 cm) containing 10 cm water (22° C.) from which they cannot escape.
The mice were placed in the water for 6 minutes and the duration of immobility during the last 4 minutes was measured. The latency to the first bout of immobility was also recorded starting from the beginning of the test. 10 mice were studied per group. The test substance was administered p.o. 30 minutes before the test and compared with vehicle control group. The test was performed blind.

rat NR1/NR2B receptor = rat NR1/NR2B receptor (Rattus norvegicus (Rat), UniProt P35439+Q00960); experiment: NR2B binding assay: inhibition of specific [3H]-Ifenprodil binding to the rat NR1/NR2B receptor; conditions: [3H]-Ifenprodil binding, rat brain membranes
hERG receptor = hERG receptor (Homo sapiens (Human), UniProt Q12809); experiment: HERGBD: inhibition of specific [3H]-Dofetilide binding to the hERG receptor
hERG receptor, sequence (Q12809 whole entry): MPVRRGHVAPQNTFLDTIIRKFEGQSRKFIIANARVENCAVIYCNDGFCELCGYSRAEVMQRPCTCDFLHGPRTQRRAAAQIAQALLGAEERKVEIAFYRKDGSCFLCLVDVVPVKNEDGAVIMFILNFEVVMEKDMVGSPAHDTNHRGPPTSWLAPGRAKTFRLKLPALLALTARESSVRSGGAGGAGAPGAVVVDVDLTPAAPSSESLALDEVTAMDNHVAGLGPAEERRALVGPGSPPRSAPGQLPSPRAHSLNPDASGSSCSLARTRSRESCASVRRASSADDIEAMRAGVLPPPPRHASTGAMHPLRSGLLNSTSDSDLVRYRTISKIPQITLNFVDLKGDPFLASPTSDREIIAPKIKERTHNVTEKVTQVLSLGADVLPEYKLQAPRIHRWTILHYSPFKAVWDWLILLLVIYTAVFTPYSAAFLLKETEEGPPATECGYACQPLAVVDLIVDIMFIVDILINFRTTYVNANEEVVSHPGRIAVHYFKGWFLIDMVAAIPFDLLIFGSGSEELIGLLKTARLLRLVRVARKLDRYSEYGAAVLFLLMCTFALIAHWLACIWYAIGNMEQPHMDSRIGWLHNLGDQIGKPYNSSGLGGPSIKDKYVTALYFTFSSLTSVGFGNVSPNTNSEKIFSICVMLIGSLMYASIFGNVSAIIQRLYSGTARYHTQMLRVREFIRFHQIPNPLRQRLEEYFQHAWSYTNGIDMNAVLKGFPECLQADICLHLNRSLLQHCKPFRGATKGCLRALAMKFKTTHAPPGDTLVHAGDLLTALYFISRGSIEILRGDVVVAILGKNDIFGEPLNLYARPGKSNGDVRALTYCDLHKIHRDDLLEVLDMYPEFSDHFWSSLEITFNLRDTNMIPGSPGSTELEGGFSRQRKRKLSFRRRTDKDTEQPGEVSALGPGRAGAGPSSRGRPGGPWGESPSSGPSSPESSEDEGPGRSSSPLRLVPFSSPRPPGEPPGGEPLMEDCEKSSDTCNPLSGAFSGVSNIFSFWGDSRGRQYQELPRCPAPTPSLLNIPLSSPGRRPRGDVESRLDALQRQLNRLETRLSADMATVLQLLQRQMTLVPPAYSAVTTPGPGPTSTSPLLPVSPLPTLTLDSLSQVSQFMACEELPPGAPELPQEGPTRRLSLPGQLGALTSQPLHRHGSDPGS

rat NR1/NR2B receptor, sequence (Q00960 27-1482, other chains not shown): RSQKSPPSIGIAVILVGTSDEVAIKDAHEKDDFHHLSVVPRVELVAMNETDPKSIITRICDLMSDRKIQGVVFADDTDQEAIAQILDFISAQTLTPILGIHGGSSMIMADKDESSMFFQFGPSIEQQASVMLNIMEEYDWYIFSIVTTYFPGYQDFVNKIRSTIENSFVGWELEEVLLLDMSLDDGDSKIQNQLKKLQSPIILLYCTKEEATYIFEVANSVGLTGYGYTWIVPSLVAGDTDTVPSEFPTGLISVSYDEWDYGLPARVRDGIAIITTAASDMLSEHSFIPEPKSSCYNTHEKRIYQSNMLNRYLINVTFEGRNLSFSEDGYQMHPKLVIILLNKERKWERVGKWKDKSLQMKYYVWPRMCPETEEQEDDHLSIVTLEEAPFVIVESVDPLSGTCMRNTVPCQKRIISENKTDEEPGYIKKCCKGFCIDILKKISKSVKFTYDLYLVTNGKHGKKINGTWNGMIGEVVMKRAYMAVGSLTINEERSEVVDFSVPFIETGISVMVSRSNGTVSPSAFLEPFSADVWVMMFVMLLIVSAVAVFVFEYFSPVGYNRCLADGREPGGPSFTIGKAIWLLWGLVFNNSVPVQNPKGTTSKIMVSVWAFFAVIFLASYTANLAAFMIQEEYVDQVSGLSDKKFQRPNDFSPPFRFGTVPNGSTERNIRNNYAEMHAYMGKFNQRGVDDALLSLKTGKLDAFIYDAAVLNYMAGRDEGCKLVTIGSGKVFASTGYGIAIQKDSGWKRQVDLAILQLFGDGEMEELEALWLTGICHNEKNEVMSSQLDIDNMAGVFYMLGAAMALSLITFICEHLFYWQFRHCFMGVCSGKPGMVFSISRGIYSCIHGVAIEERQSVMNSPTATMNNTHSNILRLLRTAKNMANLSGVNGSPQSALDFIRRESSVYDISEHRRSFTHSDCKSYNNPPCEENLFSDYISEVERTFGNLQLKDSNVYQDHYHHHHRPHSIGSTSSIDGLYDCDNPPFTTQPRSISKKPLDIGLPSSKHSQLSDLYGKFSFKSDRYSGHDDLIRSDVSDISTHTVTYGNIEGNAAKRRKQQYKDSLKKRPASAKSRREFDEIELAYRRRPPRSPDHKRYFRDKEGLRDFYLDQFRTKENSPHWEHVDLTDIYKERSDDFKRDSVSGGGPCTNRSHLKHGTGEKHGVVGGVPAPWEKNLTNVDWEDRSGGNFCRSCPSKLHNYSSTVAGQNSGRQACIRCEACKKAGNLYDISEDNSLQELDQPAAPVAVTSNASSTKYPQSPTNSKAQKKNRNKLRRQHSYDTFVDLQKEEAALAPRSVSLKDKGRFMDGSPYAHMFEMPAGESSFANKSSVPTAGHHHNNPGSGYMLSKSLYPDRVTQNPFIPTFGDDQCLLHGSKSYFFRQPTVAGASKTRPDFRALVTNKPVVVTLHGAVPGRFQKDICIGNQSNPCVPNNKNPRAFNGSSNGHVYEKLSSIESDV
human NR1/NR2B ion channels, sequence (Q13224 27-1484, other chains not shown): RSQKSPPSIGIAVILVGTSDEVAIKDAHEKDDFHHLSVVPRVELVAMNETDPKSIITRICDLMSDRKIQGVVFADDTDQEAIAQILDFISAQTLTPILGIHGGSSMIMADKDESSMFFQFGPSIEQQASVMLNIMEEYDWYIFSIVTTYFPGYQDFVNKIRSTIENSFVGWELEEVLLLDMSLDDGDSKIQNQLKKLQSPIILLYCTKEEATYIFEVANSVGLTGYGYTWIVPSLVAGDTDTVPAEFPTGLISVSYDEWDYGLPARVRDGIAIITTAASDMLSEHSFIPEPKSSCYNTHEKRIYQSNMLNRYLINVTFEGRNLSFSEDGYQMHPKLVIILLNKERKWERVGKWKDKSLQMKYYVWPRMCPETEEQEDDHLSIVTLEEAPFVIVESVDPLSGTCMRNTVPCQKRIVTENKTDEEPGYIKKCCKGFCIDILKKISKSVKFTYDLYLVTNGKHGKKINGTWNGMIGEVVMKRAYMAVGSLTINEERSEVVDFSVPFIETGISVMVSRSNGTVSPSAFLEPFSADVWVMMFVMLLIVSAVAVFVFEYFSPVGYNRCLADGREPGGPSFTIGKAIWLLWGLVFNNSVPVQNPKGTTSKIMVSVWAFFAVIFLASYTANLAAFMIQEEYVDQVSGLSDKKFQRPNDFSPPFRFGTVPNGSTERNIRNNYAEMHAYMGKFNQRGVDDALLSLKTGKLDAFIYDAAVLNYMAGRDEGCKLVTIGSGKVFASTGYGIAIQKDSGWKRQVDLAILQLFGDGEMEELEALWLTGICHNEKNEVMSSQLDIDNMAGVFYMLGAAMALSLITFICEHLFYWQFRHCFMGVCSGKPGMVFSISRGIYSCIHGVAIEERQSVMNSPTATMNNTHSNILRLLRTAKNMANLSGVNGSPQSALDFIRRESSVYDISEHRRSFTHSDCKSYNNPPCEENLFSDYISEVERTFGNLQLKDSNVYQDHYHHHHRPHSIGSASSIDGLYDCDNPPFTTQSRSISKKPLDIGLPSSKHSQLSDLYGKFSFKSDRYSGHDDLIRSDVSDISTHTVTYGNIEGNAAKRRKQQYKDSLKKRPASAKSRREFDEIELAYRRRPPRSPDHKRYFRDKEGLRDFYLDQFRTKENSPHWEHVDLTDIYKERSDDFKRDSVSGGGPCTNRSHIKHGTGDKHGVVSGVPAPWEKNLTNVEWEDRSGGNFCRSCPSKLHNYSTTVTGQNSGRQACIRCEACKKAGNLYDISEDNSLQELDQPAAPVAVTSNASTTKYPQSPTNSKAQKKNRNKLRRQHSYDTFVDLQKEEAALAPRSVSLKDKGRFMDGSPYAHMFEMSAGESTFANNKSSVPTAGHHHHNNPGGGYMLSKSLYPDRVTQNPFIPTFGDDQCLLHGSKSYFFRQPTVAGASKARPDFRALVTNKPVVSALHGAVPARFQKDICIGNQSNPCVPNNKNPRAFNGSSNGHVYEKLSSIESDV

Compound | IC50 [1] [nM] | Minimum effective dose (mice) [mg/kg] | IC50 (rat NR1/NR2B receptor) [nM] | IC50 (hERG receptor) [nM] | IC50 (hERG receptor; [3H]-Dofetilide binding, membranes of HEK cells with human ERG receptor, read-out: IC50) [nM]
Cn1ccc(Cn2cc(-c3ccc(Cl)c(OC(F)F)c3)cn2)n1 [Example 2, 3-[[4-[4-Chloro-3-(difluoromethoxy)phenyl]pyrazol-1-yl]methyl]-1-methyl-pyrazole] | 2460 | 30 | – | – | –
Fc1ccc(-c2cnn(Cc3cc[nH]n3)c2)cc1OC(F)F [Example 18, 4-[3-(difluoromethoxy)-4-fluoro-phenyl]-1-(1H-pyrazol-3-ylmethyl) pyrazole] | 370 | 10 | – | – | –
CCc1[nH]ncc1Cn1cc(-c2ccc(F)c(C(F)F)c2)cn1 [Example 43, 4-[3-(Difluoromethyl)-4-fluoro-phenyl]-1-[(5-ethyl-1H-pyrazol-4-yl)methyl]pyrazole] | 2660 | – | 134 | 57400 | –
CCc1cc(Cn2cc(-c3ccc(Cl)c(OC(F)F)c3)cn2)n[nH]1 [Example 14, 3-[[4-[4-Chloro-3-(difluoromethoxy)phenyl]pyrazol-1-yl]methyl]-5-ethyl-1H-pyrazole] | > 10000 | – | 76.2 | – | 16100
Cn1ccc(Cn2cc(-c3ccc(F)c(C(F)F)c3)cn2)n1 [Example 31, 3-[[4-[3-(difluoromethyl)-4-fluoro-phenyl]pyrazol-1-yl]methyl]-1-methyl-pyrazole Succinate] | 7770 | – | 264 | 19700 | –
CCc1cc(Cn2cc(-c3ccc(F)c(C(F)F)c3)cn2)n[nH]1 [Example 40, 3-[[4-[3-(Difluoromethyl)-4-fluoro-phenyl]pyrazol-1-yl]methyl]-5-ethyl-1H-pyrazole] | 3300 | – | 47 | 23300 | –

Reference: patent US10155727B2, “Pyrazoles” (Janssen Pharmaceuticals, Inc., priority 2014, dated 2018)
